# Measured values as given in paper PMC9304232 (Epilepsia, 2022).
# Read-outs that look alike come from different tables or passages of the source.
# Assays:
# male CD‐1 mice [1] = test: Mouse spontaneous locomotor activity; format: in vivo; conditions: for sLMA TD50: PRAX‐562 po, CBZ and LTG ip, dose reducing sLMA by 50%; for sLMA TC50, free brain: calculated free brain concentration
# male CD‐1 mice [2] = test: Protective index; format: in vivo, mouse; conditions: for PI (plasma TC50/plasma EC50): based on free plasma concentrations
# hNaV1.6 [3] = molecular target: T1, hNaV1.6 (Homo sapiens, UniProt Q9UQD0); test: Peak INa tonic block; format: cell-based; conditions: for Peak INa TB, slope: Hill slope; for Peak INa TB, slope / Ratio to persistent INa (peak INa TB): hNaV1.6; for Ratio to persistent INa (peak INa TB): TB IC50 / persistent INa IC50
# male CD‐1 mice [4] = test: Mouse maximal electroshock seizure; format: in vivo; conditions: for EC50: Mus musculus; for MES ED50 (increasing latency to tonic extension seizures): PRAX‐562 po, CBZ and LTG ip
# hNaV1.6 [5] = molecular target: T1, hNaV1.6; test: ATX‐II‐induced persistent INa, whole‐cell patch clamp; conditions: for Persistent INa, slope: Hill slope of IC50 fit, hNaV1.6
# hNaV1.6 [6] = molecular target: T1, hNaV1.6; test: Peak INa use‐dependent block; format: cell-based; conditions: for Peak INa UDB, 10 Hz, slope: Hill slope; for Peak INa UDB, 10 Hz, slope / Ratio to persistent INa (peak INa UDB) / Ratio to peak INa TB (peak INa UDB): hNaV1.6; for Use‐dependent block at a stimulation frequency of 10 Hz: hNaV1.6, Figure 2E,F; for Ratio to persistent INa (peak INa UDB): UDB IC50 / persistent INa IC50; for Ratio to peak INa TB (peak INa UDB): preference of use‐dependent block over tonic block
# hNaV1.6 [7] = molecular target: T1, hNaV1.6; test: Peak INa voltage‐dependent block; conditions: for Peak INa VDB, slope: Hill slope; for Ratio to persistent INa (peak INa VDB): VDB IC50 / persistent INa IC50
# [8] = test system: mice with Scn8a (NaV1.6‐N1768D/+, NaV1.6‐R1872W/+) or Scn2a (NaV1.2‐Q54) variants; conditions: Scn8a or Scn2a gain‐of‐function variants; ref [20], [21], [22]; cited from earlier work
# [9] = test system: hippocampal CA1 pyramidal neurons; test: Evoked action potential firing; format: cell-based; conditions: wild‐type mouse CA1 neurons
# hNaV1.2 [10] = molecular target: T2, hNaV1.2 (Homo sapiens, UniProt Q99250); test: Peak INa voltage‐dependent block, patch clamp; format: cell-based; conditions: VDB IC50 / persistent IC50
# hNaV1.5 [11] = molecular target: T3, hNaV1.5 (Homo sapiens, UniProt Q14524); test: Peak INa tonic block, patch clamp; format: cell-based; conditions: TB / persistent IC50
# hNaV1.1 [12] = molecular target: T4, hNaV1.1 (Homo sapiens, UniProt P35498); test: Peak INa voltage‐dependent block, patch clamp; format: cell-based; conditions: VDB IC50 / persistent IC50
# hNaV1.5 [13] = molecular target: T3, hNaV1.5; test: Peak INa voltage‐dependent block, patch clamp; format: cell-based; conditions: VDB IC50 / persistent IC50
# hNaV1.1 [14] = molecular target: T4, hNaV1.1; test: Peak INa tonic block, patch clamp; format: cell-based; conditions: TB IC50 / persistent IC50
# hNaV1.2 [15] = molecular target: T2, hNaV1.2; test: Peak INa tonic block, patch clamp; format: cell-based; conditions: TB IC50 / persistent IC50
# [16] = male CD‐1 mice, po, total brain
# T1 sequence (Q9UQD0 whole entry): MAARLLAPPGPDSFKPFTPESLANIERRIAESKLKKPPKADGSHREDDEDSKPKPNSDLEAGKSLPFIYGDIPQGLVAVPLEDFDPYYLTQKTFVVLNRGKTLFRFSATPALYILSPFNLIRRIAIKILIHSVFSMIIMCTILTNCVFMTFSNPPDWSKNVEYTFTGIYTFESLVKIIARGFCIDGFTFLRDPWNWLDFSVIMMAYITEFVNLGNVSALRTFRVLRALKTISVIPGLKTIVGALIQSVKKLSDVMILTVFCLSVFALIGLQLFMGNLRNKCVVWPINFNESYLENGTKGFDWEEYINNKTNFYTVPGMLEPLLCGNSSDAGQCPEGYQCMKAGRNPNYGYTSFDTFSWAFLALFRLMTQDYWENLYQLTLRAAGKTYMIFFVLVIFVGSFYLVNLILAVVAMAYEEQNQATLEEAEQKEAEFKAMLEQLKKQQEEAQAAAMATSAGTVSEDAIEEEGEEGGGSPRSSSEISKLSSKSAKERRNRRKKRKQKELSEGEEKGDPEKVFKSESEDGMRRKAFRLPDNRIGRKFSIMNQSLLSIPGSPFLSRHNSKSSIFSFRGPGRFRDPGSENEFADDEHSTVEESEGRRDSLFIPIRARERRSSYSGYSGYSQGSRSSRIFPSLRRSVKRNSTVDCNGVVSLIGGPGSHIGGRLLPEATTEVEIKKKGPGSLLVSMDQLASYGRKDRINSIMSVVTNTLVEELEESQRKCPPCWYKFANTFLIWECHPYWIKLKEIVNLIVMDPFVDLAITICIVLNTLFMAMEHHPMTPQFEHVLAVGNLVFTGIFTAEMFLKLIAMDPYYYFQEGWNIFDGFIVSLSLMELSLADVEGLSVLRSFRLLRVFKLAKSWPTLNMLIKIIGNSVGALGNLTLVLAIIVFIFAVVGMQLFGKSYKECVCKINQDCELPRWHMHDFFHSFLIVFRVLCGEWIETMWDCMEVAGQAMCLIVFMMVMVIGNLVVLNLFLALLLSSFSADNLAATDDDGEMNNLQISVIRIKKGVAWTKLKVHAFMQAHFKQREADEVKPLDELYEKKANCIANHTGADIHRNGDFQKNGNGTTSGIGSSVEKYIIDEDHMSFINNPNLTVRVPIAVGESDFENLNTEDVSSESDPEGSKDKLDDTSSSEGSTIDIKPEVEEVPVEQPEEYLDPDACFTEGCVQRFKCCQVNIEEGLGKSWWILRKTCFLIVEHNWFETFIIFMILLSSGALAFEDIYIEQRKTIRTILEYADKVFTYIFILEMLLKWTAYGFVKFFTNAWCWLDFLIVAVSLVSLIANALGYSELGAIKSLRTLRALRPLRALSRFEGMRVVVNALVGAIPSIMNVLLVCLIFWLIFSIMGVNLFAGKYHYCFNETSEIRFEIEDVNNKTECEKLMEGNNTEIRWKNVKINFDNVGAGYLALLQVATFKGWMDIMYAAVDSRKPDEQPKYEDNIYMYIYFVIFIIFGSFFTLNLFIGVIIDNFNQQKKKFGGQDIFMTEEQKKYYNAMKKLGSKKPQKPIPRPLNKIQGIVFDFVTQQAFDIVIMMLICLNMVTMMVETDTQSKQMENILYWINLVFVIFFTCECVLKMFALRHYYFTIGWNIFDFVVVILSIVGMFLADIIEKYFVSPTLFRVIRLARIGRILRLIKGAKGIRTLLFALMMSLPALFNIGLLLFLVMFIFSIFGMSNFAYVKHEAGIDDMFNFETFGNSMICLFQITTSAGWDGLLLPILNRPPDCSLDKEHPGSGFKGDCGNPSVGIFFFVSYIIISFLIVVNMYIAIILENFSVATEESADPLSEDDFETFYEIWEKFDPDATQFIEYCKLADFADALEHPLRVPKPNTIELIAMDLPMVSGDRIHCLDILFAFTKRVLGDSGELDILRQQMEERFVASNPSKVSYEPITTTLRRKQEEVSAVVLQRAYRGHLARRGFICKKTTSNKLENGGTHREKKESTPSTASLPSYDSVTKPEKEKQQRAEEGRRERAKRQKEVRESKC
# T2 sequence (Q99250 whole entry): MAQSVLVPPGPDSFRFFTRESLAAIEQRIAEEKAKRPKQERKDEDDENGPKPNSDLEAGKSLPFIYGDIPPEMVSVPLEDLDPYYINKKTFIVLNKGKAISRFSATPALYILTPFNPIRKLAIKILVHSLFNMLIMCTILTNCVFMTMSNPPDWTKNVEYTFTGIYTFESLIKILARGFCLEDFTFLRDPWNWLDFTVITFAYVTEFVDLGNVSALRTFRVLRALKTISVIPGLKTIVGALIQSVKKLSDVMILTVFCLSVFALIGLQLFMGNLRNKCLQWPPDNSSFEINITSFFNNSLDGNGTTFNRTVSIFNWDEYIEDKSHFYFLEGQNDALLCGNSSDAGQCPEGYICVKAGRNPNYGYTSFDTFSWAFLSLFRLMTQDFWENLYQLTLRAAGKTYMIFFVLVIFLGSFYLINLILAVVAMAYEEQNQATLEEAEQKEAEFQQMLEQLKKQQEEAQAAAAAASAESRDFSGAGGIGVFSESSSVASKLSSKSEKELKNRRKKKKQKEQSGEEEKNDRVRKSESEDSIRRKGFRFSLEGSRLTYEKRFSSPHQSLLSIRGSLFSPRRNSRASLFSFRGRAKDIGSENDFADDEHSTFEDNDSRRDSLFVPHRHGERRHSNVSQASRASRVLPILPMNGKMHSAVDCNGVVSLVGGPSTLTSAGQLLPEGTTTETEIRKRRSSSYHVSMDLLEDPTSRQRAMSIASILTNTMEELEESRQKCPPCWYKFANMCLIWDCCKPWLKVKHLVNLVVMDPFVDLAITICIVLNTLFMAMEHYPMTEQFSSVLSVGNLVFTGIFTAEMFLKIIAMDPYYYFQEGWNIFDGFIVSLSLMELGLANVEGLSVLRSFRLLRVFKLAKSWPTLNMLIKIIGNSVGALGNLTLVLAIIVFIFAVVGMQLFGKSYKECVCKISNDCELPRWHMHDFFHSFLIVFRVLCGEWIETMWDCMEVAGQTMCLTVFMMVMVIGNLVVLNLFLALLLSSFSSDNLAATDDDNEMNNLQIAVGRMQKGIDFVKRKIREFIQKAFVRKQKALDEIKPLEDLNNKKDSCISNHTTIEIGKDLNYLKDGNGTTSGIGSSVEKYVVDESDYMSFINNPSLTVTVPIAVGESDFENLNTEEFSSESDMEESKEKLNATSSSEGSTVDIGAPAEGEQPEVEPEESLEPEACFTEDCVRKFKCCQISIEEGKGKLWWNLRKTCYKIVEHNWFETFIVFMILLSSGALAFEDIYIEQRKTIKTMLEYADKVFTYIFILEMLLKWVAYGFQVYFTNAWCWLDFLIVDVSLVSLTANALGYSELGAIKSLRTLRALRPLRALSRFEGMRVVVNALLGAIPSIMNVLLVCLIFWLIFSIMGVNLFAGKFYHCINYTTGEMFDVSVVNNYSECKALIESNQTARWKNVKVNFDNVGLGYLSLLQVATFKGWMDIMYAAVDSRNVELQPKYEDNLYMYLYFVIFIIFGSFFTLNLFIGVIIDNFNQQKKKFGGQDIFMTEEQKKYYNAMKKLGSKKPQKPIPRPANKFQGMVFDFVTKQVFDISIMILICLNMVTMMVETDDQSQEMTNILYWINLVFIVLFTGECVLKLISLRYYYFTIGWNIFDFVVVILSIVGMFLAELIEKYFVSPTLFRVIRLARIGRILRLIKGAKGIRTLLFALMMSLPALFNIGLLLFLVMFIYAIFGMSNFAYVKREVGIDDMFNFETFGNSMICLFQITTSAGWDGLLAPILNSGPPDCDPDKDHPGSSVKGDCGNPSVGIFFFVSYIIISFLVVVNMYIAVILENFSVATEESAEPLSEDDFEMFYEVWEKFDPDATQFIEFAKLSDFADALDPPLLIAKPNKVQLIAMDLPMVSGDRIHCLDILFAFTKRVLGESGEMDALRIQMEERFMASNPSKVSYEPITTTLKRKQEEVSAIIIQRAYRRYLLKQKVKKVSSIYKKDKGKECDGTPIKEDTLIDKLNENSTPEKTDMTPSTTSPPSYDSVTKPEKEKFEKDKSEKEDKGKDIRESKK
compound,measurement,setting,value
"NC(=O)N1c2ccccc2C=Cc2ccccc21 [Carbamazepine, carbamazepine]",Sedation/sLMA at the dose required for complete seizure prevention,male CD‐1 mice [1]; ip,significant reduction in sLMA
same,sLMA TD50,"male CD‐1 mice [1]; male CD‐1 mice, listed as CBZ",26.5 mg/kg
same,"sLMA TC50, free brain",male CD‐1 mice [1]; male CD‐1 mice,14 350 nmol·L^–1
same,PI (plasma TC50/plasma EC50),male CD‐1 mice [2],3.4
same,"Peak INa TB, slope",hNaV1.6 [3],1.0
same,EC50,"male CD‐1 mice [4]; read-out: MES EC50, free brain",2410 nM
same,MES ED50 (increasing latency to tonic extension seizures),"male CD‐1 mice [4]; male CD‐1 mice, listed as CBZ",3.4 mg/kg
same,"Persistent INa, slope",hNaV1.6 [5],1.1
same,IC50,"hNaV1.6 [5]; Persistent INa, IC50, hNaV1.6, 200 nmol·L^–1 ATX‐II, holding −120 mV",77500 nM
same,"Peak INa UDB, 10 Hz, slope",hNaV1.6 [6],.9
same,Use‐dependent block at a stimulation frequency of 10 Hz,hNaV1.6 [6],not observed
same,"Peak INa VDB, slope",hNaV1.6 [7],.9
NC(=O)O[C@@H](Cn1ncnn1)c1ccccc1Cl [Cenobamate],"Peak INa TB, slope",hNaV1.6 [3],1.1
same,Ratio to persistent INa (peak INa TB),hNaV1.6 [3],24
same,"Persistent INa, slope",hNaV1.6 [5],1.1
same,"Peak INa UDB, 10 Hz, slope",hNaV1.6 [6],.7
same,Ratio to persistent INa (peak INa UDB),hNaV1.6 [6],11
same,Ratio to peak INa TB (peak INa UDB),hNaV1.6 [6],2.3
same,"Peak INa VDB, slope",hNaV1.6 [7],.9
same,Ratio to persistent INa (peak INa VDB),hNaV1.6 [7],.9
COC[C@@H](NC(C)=O)C(=O)NCc1ccccc1 [Lacosamide],"Persistent INa, slope",hNaV1.6 [5],.9
same,"Peak INa UDB, 10 Hz, slope",hNaV1.6 [6],1.3
same,Ratio to persistent INa (peak INa UDB),hNaV1.6 [6],.8
same,"Peak INa VDB, slope",hNaV1.6 [7],1.2
same,Ratio to persistent INa (peak INa VDB),hNaV1.6 [7],.3
"Nc1nnc(-c2cccc(Cl)c2Cl)c(N)n1 [Lamotrigine, lamotrigine]",sLMA TD50,"male CD‐1 mice [1]; male CD‐1 mice, listed as LTG",37.6 mg/kg
same,"sLMA TC50, free brain",male CD‐1 mice [1]; male CD‐1 mice,12 853 nmol·L^–1
same,"Peak INa TB, slope",hNaV1.6 [3],.8
same,EC50,"male CD‐1 mice [4]; read-out: MES EC50, free brain",2750 nM
same,MES ED50 (increasing latency to tonic extension seizures),"male CD‐1 mice [4]; male CD‐1 mice, listed as LTG",5.0 mg/kg
same,"Persistent INa, slope",hNaV1.6 [5],1.0
same,"Peak INa UDB, 10 Hz, slope",hNaV1.6 [6],1.0
same,Use‐dependent block at a stimulation frequency of 10 Hz,hNaV1.6 [6],not observed
same,"Peak INa VDB, slope",hNaV1.6 [7],.9
NC(=O)N1c2ccccc2CC(=O)c2ccccc21 [Oxcarbazepine],"Peak INa TB, slope",hNaV1.6 [3],1.7
same,Ratio to persistent INa (peak INa TB),hNaV1.6 [3],8
same,"Persistent INa, slope",hNaV1.6 [5],1.0
same,"Peak INa VDB, slope",hNaV1.6 [7],1.1
same,Ratio to persistent INa (peak INa VDB),hNaV1.6 [7],.3
FC(F)(F)Oc1ccc(-c2ccc3nnc(C(F)(F)F)n3c2)cc1 [PRAX‐330],Seizures and premature death in NaV DEE mouse models,[8],protected mice from seizures and premature death
"CCOC(F)(F)c1nnc2cnc(-c3cnc(OCC(F)(F)F)c(F)c3)cn12 [PRAX‐562, 3‐[ethoxydifluoromethyl]‐6‐[5‐fluoro‐6‐(2,2,2‐trifluoroethoxy)pyridin‐3‐yl]‐[1,2,4]triazolo[4,3‐a]pyrazine]","Intrinsic excitability, number of evoked APs",[9]; .3 µmol·L^–1,significantly reduced
same,AP amplitude,"[9]; .3 µmol·L^–1, +200 pA",minimal effects
same,Effect on locomotor function,male CD‐1 mice [1]; 10 mg/kg po,no effect
same,Distance moved in sLMA,male CD‐1 mice [1]; 20 and 40 mg/kg po,reductions in the distance moved
same,"sLMA TC50, plasma, free","male CD‐1 mice [1]; male CD‐1 mice, po, free plasma",308.9 nmol·L^–1
same,"sLMA TC50, brain",male CD‐1 mice [1]; [16],1899 ng/g
same,"sLMA TC50, plasma","male CD‐1 mice [1]; male CD‐1 mice, po, total plasma",1.553 µg/mL
same,"sLMA TC50, free brain",male CD‐1 mice [1]; male CD‐1 mice,69.7 nmol·L^–1
same,"Ratio to Persistent INa (Peak INa VDB), hNaV1.2",hNaV1.2 [10],8.2
same,PI wider compared to CBZ and LTG,"male CD‐1 mice [2]; acute, MES and sLMA models",3 ×
same,PI (plasma TC50/plasma EC50),male CD‐1 mice [2],~17
same,"Ratio to Persistent INa (Peak INa TB), hNaV1.5",hNaV1.5 [11],> 174
same,"Peak INa TB, slope",hNaV1.6 [3],1.0
same,IC50,"hNaV1.6 [3]; Peak INa TB, IC50, hNaV1.6 tonic block, .1 Hz",8470 nM
same,Ratio to persistent INa (peak INa TB),hNaV1.6 [3],60
same,"Ratio to Persistent INa (Peak INa VDB), hNaV1.1",hNaV1.1 [12],6.3
same,Mice that did not exhibit tonic seizures,"male CD‐1 mice [4]; 10 mg/kg po, 30 min before MES",11 of 12
same,EC50,"male CD‐1 mice [4]; po, read-out: MES EC50, plasma",0.0901 µg/mL
same,EC50,"male CD‐1 mice [4]; po, read-out: MES EC50, plasma, free",17.9 nM
same,EC50,"male CD‐1 mice [4]; read-out: MES EC50, free brain",4.3 nM
same,"MES EC50, brain",male CD‐1 mice [4]; [16],116 ng/g
same,"Persistent INa, slope",hNaV1.6 [5],1.2
same,"Ratio to Persistent INa (Peak INa VDB), hNaV1.5",hNaV1.5 [13],5.8
same,"Peak INa UDB, 10 Hz, slope",hNaV1.6 [6],1.3
same,Ratio to persistent INa (peak INa UDB),hNaV1.6 [6],2
same,Ratio to peak INa TB (peak INa UDB),hNaV1.6 [6],31
same,"Ratio to Persistent INa (Peak INa TB), hNaV1.1",hNaV1.1 [14],173
same,"Peak INa VDB, slope",hNaV1.6 [7],1.0
same,Ratio to persistent INa (peak INa VDB),hNaV1.6 [7],2.2
same,"Ratio to Persistent INa (Peak INa TB), hNaV1.2",hNaV1.2 [15],80
O=C1NC(=O)C(c2ccccc2)(c2ccccc2)N1 [Phenytoin],"Persistent INa, slope",hNaV1.6 [5],.8
same,"Peak INa UDB, 10 Hz, slope",hNaV1.6 [6],.6
same,Ratio to persistent INa (peak INa UDB),hNaV1.6 [6],15
same,"Peak INa VDB, slope",hNaV1.6 [7],1.0
same,Ratio to persistent INa (peak INa VDB),hNaV1.6 [7],.8
